Test systems include NCI-H23; TK-10; SK-MEL-2; HCT-15; SNB-19; M14; LOX IMVI; KM-20L2; LXFL 529; RXF 631; SF-539; SW-620; SN12C; ACHN; SK-OV-3; OVCAR-3; DMS-273; SF-268; K562; SK-MEL-28.
Common to all, as to experiment: NCI anticancer screen, dose series, 48 h

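Step 1: Grow cells in 96-well plates. Step 2: Expose to compound for 48 hours at 5 concentrations. Step 3: Interpolate endpoints linearly; if unreached, use highest concentration. At the GI50, growth is halved.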 Activity calls are given as the source filed them. Cut-off read from the data, not from the text of the source: active = GI50 up to about 1.1 µM and inactive = higher. Bounds are passed on as bounds.

On to `O=S(=O)(CF)OCCCCOS(=O)(=O)CF`, for which the GI50 with NCI-H23 is 97.9 µM (inactive); in the assay on TK-10, > 100 µM (inactive); with SK-MEL-2, > 100 µM (inactive); in the assay on HCT-15, more than 100 µM; in the assay on SNB-19, 95.3 µM (inactive); with M14 it was > 100 µM (inactive). For the same molecule, the GI50 was 97.1 µM (inactive) with LOX IMVI; > 100 µM (inactive) in the assay with KM-20L2; > 100 µM (inactive) in the assay with LXFL 529; > 100 µM (inactive) with RXF 631; > 100 µM (inactive) in the assay on SF-539; > 100 µM (inactive) with SW-620. The GI50 in the assay on SN12C is > 100 µM (inactive); with ACHN it was 20.4 µM (inactive); in the assay on SK-OV-3, > 100 µM (inactive); in the assay with OVCAR-3 it was > 100 µM (inactive); in the assay on DMS-273 it was 75.9 µM (inactive); in the assay with SF-268 it was > 100 µM (inactive). In addition, the GI50 in the assay with K562 and with SK-MEL-28 was > 100 µM (inactive) each time.

The record behind these values is ChEMBL document CHEMBL1201862, “PubChem BioAssay data set” (2004).
